{"source": "patent US8492328B2", "about": "“Biomarkers and methods for determining sensitivity to insulin growth factor-1 receptor modulators” (Bristol-Myers Squibb Company, priority 2007, dated 2013)", "key": {"H513": {"test_system": "H513", "test": "In vitro cellular proliferation assay ([3H]-thymidine incorporation)", "assay_type": "cell-based, human", "conditions": "H513 (Melignant Pleural Mesothelioma)", "method": "(§1) All pediatric sarcoma and neuroblastoma cell lines were obtained from Dr. Lee Helman at NIH. All cell lines were grown in RPMI medium supplemented with Glutamax (Gibco/Invitrogen #61870-036), 10% inactivated fetal bovine serum (Gibco/Invitrogen #16140-071), 10 mM Hepes, penicillin and streptomycin.\n(§2) Cells were plated at an optimized density for each cell line per well in 96-well microtiter Falcon plates, incubated overnight, and then exposed to a serial dilution of drug. After 72 hours incubation with drug at 37° C., cells were pulsed with 4 μCi/ml [6-3H] thymidine (Amersham Pharmacia Biotech, UK) for 3 hours, trypsinized, harvested onto UniFilter-96, GF/B plates (PerkinElmer, Boston, Mass.) and scintillation was measured on a TopCount NXT (Packard, Conn.). Results were expressed as an IC50, which is the drug concentration required to inhibit cell proliferation by 50% to that of untreated control cells. The mean IC50 and standard deviation (SD) from multiple tests for each cell line were calculated."}, "SHSY5Y": {"test_system": "SHSY5Y", "test": "In vitro cellular proliferation assay ([3H]-thymidine incorporation)", "assay_type": "cell-based, human", "conditions": "SHSY5Y (Neuroblastoma)", "method": "as §1, §2"}, "SA-4": {"test_system": "SA-4", "test": "In vitro cellular proliferation assay ([3H]-thymidine incorporation)", "assay_type": "cell-based, human", "conditions": "SA-4 (Liposarcoma)", "method": "as §1, §2"}, "H211": {"test_system": "H211", "test": "In vitro cellular proliferation assay ([3H]-thymidine incorporation)", "assay_type": "cell-based, human", "conditions": "H211 (Melignant Pleural Mesothelioma)", "method": "as §1, §2"}, "TC32": {"test_system": "TC32", "test": "In vitro cellular proliferation assay ([3H]-thymidine incorporation)", "assay_type": "cell-based, human", "conditions": "TC32 (Ewing)", "method": "as §1, §2"}, "RDES": {"test_system": "RDES", "test": "In vitro cellular proliferation assay ([3H]-thymidine incorporation)", "assay_type": "cell-based, human", "conditions": "RDES (Ewing)", "method": "as §1, §2"}, "H2595": {"test_system": "H2595", "test": "In vitro cellular proliferation assay ([3H]-thymidine incorporation)", "assay_type": "cell-based, human", "conditions": "H2595 (Melignant Pleural Mesothelioma)", "method": "as §1, §2"}, "SK-NAS": {"test_system": "SK-NAS", "test": "In vitro cellular proliferation assay ([3H]-thymidine incorporation)", "assay_type": "cell-based, human", "method": "as §1, §2"}, "JD": {"test_system": "JD", "test": "In vitro cellular proliferation assay ([3H]-thymidine incorporation)", "assay_type": "cell-based, human", "method": "as §1, §2"}, "IMR-32": {"test_system": "IMR-32", "test": "In vitro cellular proliferation assay ([3H]-thymidine incorporation)", "assay_type": "cell-based, human", "conditions": "IMR-32 (Neuroblastoma)", "method": "as §1, §2"}, "CTR": {"test_system": "CTR", "test": "In vitro cellular proliferation assay ([3H]-thymidine incorporation)", "assay_type": "cell-based, human", "method": "as §1, §2"}, "HTB-92": {"test_system": "HTB-92", "test": "In vitro cellular proliferation assay ([3H]-thymidine incorporation)", "assay_type": "cell-based, human", "conditions": "HTB-92 (Liposarcoma)", "method": "as §1, §2"}, "H2052": {"test_system": "H2052", "test": "In vitro cellular proliferation assay ([3H]-thymidine incorporation)", "assay_type": "cell-based, human", "conditions": "H2052 (Melignant Pleural Mesothelioma)", "method": "as §1, §2"}, "5838": {"test_system": "5838", "test": "In vitro cellular proliferation assay ([3H]-thymidine incorporation)", "assay_type": "cell-based, human", "conditions": "5838 (Ewing)", "method": "as §1, §2"}, "Rh4": {"test_system": "Rh4", "test": "In vitro cellular proliferation assay ([3H]-thymidine incorporation)", "assay_type": "cell-based, human", "conditions": "Rh4 (Rhabdomyosarcoma)", "method": "as §1, §2"}, "LG": {"test_system": "LG", "test": "In vitro cellular proliferation assay ([3H]-thymidine incorporation)", "assay_type": "cell-based, human", "conditions": "LG (Ewing)", "method": "as §1, §2"}, "ME": {"test_system": "ME", "test": "In vitro cellular proliferation assay ([3H]-thymidine incorporation)", "assay_type": "cell-based, human", "conditions": "ME (Rhabdomyosarcoma)", "method": "as §1, §2"}, "VW": {"test_system": "VW", "test": "In vitro cellular proliferation assay ([3H]-thymidine incorporation)", "assay_type": "cell-based, human", "conditions": "VW (Ewing)", "method": "as §1, §2"}, "Rh41": {"test_system": "Rh41", "test": "In vitro cellular proliferation assay ([3H]-thymidine incorporation)", "assay_type": "cell-based, human", "conditions": "Rh41 (Rhabdomyosarcoma)", "method": "as §1, §2"}, "SW-684": {"test_system": "SW-684", "test": "In vitro cellular proliferation assay ([3H]-thymidine incorporation)", "assay_type": "cell-based, human", "conditions": "SW-684 (Fibrosarcoma)", "method": "as §1, §2"}, "KAG": {"test_system": "KAG", "test": "In vitro cellular proliferation assay ([3H]-thymidine incorporation)", "assay_type": "cell-based, human", "conditions": "KAG (Ewing)", "method": "as §1, §2"}, "Rh1": {"test_system": "Rh1", "test": "In vitro cellular proliferation assay ([3H]-thymidine incorporation)", "assay_type": "cell-based, human", "conditions": "Rh1 (Rhabdomyosarcoma)", "method": "as §1, §2"}, "Rh41 cells": {"test_system": "Rh41 cells", "test": "Gene expression profiling of cells with compound 1 treatment", "assay_type": "cell-based, human"}, "Rh36 cells": {"test_system": "Rh36 cells", "test": "Gene and protein expression profiling of cells with compound 1 treatment", "assay_type": "cell-based, human", "conditions": "later time points, 36 and 72 hrs"}, "RD1-Resist cells": {"test_system": "RD1-Resist cells", "test": "In vitro cellular proliferation assay, compound 1 acquired resistant RD1", "assay_type": "cell-based", "conditions": "Homo sapiens", "method": "as §1, §2\n(§3) Acquired resistance to anti-cancer agents is a major clinical problem. […] In order to identify markers that may contribute to acquired resistance to the IGF1R inhibitor, global gene expression profiles for both parental RD1 and resistant RD1 were analyzed using Affymetrix gene chip. […]"}, "RD-1 cells": {"test_system": "RD-1 cells", "test": "In vitro cellular proliferation assay, parental sensitive RD-1", "assay_type": "cell-based", "conditions": "Homo sapiens, RD1; sensitive parental RD-1 (RMS) cells", "method": "as §1, §2, §3"}, "[1]": {"conditions": "Homo sapiens, 72 hours with drug, read-out: IC50"}}, "note": "Entries after “also recorded” stand apart in the source; their conditions may differ.", "data": [{"smiles": "Cc1cc(N2CCOCC2)cc2[nH]c(-c3c(NC[C@@H](O)c4cccc(Cl)c4)cc[nH]c3=O)nc12", "note": "[Compound 1, (S)-4-(2-(3-chlorophenyl)-2-hydroxyethylamino)-3-(4-methyl-6-morpholino-1H-benzo[d]imidazol-2-yl)-pyridin-2(1-H)-one]", "values": [{"measurement": "Sensitivity Classification", "setting": "H513", "value": "R (“R” means resistant to the corresponding compounds.)"}, {"measurement": "IC50", "setting": "H513; [1]", "value": 3120, "unit": "nM"}, {"measurement": "IC50", "setting": "SHSY5Y; Homo sapiens, SH-SY5Y, 72 hours with drug, read-out: IC50", "value": 149, "unit": "nM"}, {"measurement": "Sensitivity Classification", "setting": "SHSY5Y", "value": "S (“S” means sensitive)"}, {"measurement": "IC50", "setting": "SA-4; [1]", "value": 779, "unit": "nM"}, {"measurement": "Sensitivity Classification", "setting": "SA-4", "value": "R (“R” means resistant to the corresponding compounds.)"}, {"measurement": "Sensitivity Classification", "setting": "H211", "value": "R (“R” means resistant to the corresponding compounds.)"}, {"measurement": "IC50", "setting": "H211; Homo sapiens, NCI-H211, 72 hours with drug, read-out: IC50", "value": 418, "unit": "nM"}, {"measurement": "IC50", "setting": "TC32; Homo sapiens, TC-32, 72 hours with drug, read-out: IC50", "value": 55, "unit": "nM"}, {"measurement": "Sensitivity Classification", "setting": "TC32", "value": "S (“S” means sensitive)"}, {"measurement": "IC50", "setting": "RDES; Homo sapiens, RD-ES, 72 hours with drug, read-out: IC50", "value": 123, "unit": "nM"}, {"measurement": "Sensitivity Classification", "setting": "RDES", "value": "S (“S” means sensitive)"}, {"measurement": "Sensitivity Classification", "setting": "H2595", "value": "R (“R” means resistant to the corresponding compounds.)"}, {"measurement": "IC50", "setting": "H2595; Homo sapiens, NCI-H2595, 72 hours with drug, read-out: IC50", "value": 5000, "unit": "nM"}, {"measurement": "IC50", "setting": "SK-NAS; Homo sapiens, SK-N-AS, SK-NAS (Neuroblastoma), 72 hours with drug, read-out: IC50", "value": 192, "unit": "nM"}, {"measurement": "sensitivity/resistance classification in words", "setting": "SK-NAS; SK-NAS", "value": "resistant"}, {"measurement": "Sensitivity Classification", "setting": "SK-NAS; SK-NAS (Neuroblastoma)", "value": "S (“S” means sensitive)"}, {"measurement": "IC50", "setting": "JD; Homo sapiens, JD (Ewing), 72 hours with drug, read-out: IC50", "value": 232, "unit": "nM"}, {"measurement": "sensitivity/resistance classification in words", "setting": "JD; JD", "value": "resistant"}, {"measurement": "Sensitivity Classification", "setting": "JD; JD (Ewing)", "value": "S (“S” means sensitive)"}, {"measurement": "IC50", "setting": "IMR-32; [1]", "value": 277, "unit": "nM"}, {"measurement": "Sensitivity Classification", "setting": "IMR-32", "value": "S (“S” means sensitive)"}, {"measurement": "sensitivity/resistance classification in words", "setting": "CTR; CTR", "value": "resistant"}, {"measurement": "Sensitivity Classification", "setting": "CTR; CTR (Rhabdomyosarcoma)", "value": "R (“R” means resistant to the corresponding compounds.)"}, {"measurement": "IC50", "setting": "CTR; Homo sapiens, CTR (Rhabdomyosarcoma), 72 hours with drug, read-out: IC50", "value": 370, "unit": "nM"}, {"measurement": "Sensitivity Classification", "setting": "HTB-92", "value": "R (“R” means resistant to the corresponding compounds.)"}, {"measurement": "IC50", "setting": "HTB-92; [1]", "value": 584, "unit": "nM"}, {"measurement": "Sensitivity Classification", "setting": "H2052", "value": "R (“R” means resistant to the corresponding compounds.)"}, {"measurement": "IC50", "setting": "H2052; Homo sapiens, NCI-H2052, 72 hours with drug, read-out: IC50", "value": 403, "unit": "nM"}, {"measurement": "Sensitivity Classification", "setting": "5838", "value": "S (“S” means sensitive)"}, {"measurement": "IC50", "setting": "5838; [1]", "value": 172, "unit": "nM"}, {"measurement": "IC50", "setting": "Rh4; [1]", "value": 27, "unit": "nM"}, {"measurement": "Sensitivity Classification", "setting": "Rh4", "value": "S (“S” means sensitive)"}, {"measurement": "IC50", "setting": "LG; [1]", "value": 63, "unit": "nM"}, {"measurement": "Sensitivity Classification", "setting": "LG", "value": "S (“S” means sensitive)"}, {"measurement": "IC50", "setting": "ME; [1]", "value": 163, "unit": "nM"}, {"measurement": "Sensitivity Classification", "setting": "ME", "value": "S (“S” means sensitive)"}, {"measurement": "IC50", "setting": "VW; [1]", "value": 101, "unit": "nM"}, {"measurement": "Sensitivity Classification", "setting": "VW", "value": "S (“S” means sensitive)"}, {"measurement": "IC50", "setting": "Rh41; [1]", "value": 69, "unit": "nM"}, {"measurement": "Sensitivity Classification", "setting": "Rh41", "value": "S (“S” means sensitive)"}, {"measurement": "IC50", "setting": "SW-684; Homo sapiens, SW684, 72 hours with drug, read-out: IC50", "value": 5000, "unit": "nM"}, {"measurement": "Sensitivity Classification", "setting": "SW-684", "value": "R (“R” means resistant to the corresponding compounds.)"}, {"measurement": "IC50", "setting": "KAG; [1]", "value": 2110, "unit": "nM"}, {"measurement": "Sensitivity Classification", "setting": "KAG", "value": "R (“R” means resistant to the corresponding compounds.)"}, {"measurement": "IC50", "setting": "Rh1; Homo sapiens, RH-1, 72 hours with drug, read-out: IC50", "value": 135, "unit": "nM"}, {"measurement": "Sensitivity Classification", "setting": "Rh1", "value": "S (“S” means sensitive)"}, {"measurement": "Ki-67 expression", "setting": "Rh41 cells; compound 1 treated cells", "value": "Remarkable but not complete decrease"}, {"measurement": "expression of programmed cell death 4 (PDCD4)", "setting": "Rh41 cells; sensitive Rh41 cells", "value": "up-regulated"}, {"measurement": "expression level of survivin", "setting": "Rh41 cells; sensitive Rh41 cells, especially at 36 and 72 hours", "value": "significantly reduced"}, {"measurement": "genes with significant expression changes upon the drug treatment", "setting": "Rh41 cells; sensitive cell Rh41", "value": 30, "unit": "%"}, {"measurement": "effect of drug on gene/protein expression", "setting": "Rh36 cells", "value": "little to no effect; also recorded: little, to no effect"}, {"measurement": "IC50", "setting": "RD1-Resist cells", "value": 2000, "unit": "nM"}, {"measurement": "IC50", "setting": "RD1-Resist cells; RD1, acquired resistant RD-1 cells", "value": 2000, "unit": "nM"}, {"measurement": "IC50", "setting": "RD-1 cells", "value": 238, "unit": "nM"}]}]}
